Article PMC5578959, “Selective LRRK2 kinase inhibition reduces phosphorylation of endogenous Rab10 and Rab12 in human peripheral mononuclear blood cells” (Scientific Reports, 2017)

Legend:
Rab10-pThr73 = assay: Western Blot, HEK293 cells co-expressing HA-Rab10 and LRRK2 variants; type: cell-based, human; settings: 100 nM; HEK293 co-overexpressing HA-Rab10 and LRRK2 WT, G2019S or R1441C
Description: Plasmids encoding various LRRK2 and Rab GTPase protein variants were transiently expressed in HEK293 cells using Lipofectamine®2000 according to the manufacturer’s instructions (Thermo Fisher Scientific, US).
HEK293 cells were plated at a density of 1 × 10^6 cells/well in 6-well plates pre-coated for 1 hr at 37 °C with poly-L-lysin. Subsequent to the transient transfection HEK293 cells were harvested using 1 mL cold Phosphate Buffered Saline (PBS) buffer (Invitrogen, California, US) and subsequently centrifuged at 800 g for 2 minutes. Cell pellets were resuspended and solubilized in 100 µL lysis buffer (50 mM Tris hydrochloride, 1 mM magnesium chloride, 1% Triton, 0.1% sodium dodecyl sulfate (SDS), pH 8.0) on ice for 20 minutes and then centrifuged at 20,000 g for 30 minutes at 4 °C. The solubilized crude cell lysate was size mobility separated by SDS-polyacrylamide gel electrophoresis (SDS-PAGE). LRRK2 was separated on a 3–8% Tris-Acetate gel (NuPAGE® Tris-Acetate Mini Gels, Life Technologies, Paisley, UK) and Rab10 and Rab12 were separated using a NuPAGE® Novex 4–12% Bis-Tris Gel (Invitrogen, California, US). An amount of 10 µg total protein was loaded in each well. Proteins were transferred to immobilon-FL PVDF membranes (Millipore, Billerica, US).

LRRK2 = assay: Global proteome analysis, immune stimulated human PBMCs; type: cell-based; settings: 100 nM, 24 hrs, not statistically significant (q-value: 0.08)
Description: (§1) Freshly isolated PBMCs were plated at a density ranging from 7–20 × 10^6 cells in 10 cm petri dishes (Costar 3262) in RPMI-1640 media (Gibco 61870–010) supplemented with 10% non-heat inactivated FBS, 5 ml Antimycotic (Sigma cat:5965) with or without an immune stimulation cocktail consisting of 400 nM phorbol 12-myristate 13-acetate (PMA) and 100 ng/ml interferon-γ (INF-γ). After 48 hrs in culture the cultures were added a fifth of the volume media containing 5x the final concentration of the respective LRRK2 inhibitor with or without PMA and interferon-γ. […] Approximately, 400 µg of protein from each individual donor was needed in order to run the full PBMC stimulation and inhibition study with subsequent global proteome and phosphoproteome (PhosphoScout®) analyses. […]
(§2) Upon the respective treatments cells were washed with cold PBS, snap-frozen in liquid N2 and shipped to Evotec on dry-ice. […] Cell lysis was performed in ice-cold lysis buffer (8 M urea, 50 mM Tris pH 8.2, 10 mM sodium pyrophosphate, 5 mM EDTA, 5 mM EGTA, 10 mM sodium fluoride, 10 mM β-glycerophosphate, 10 mM sodium orthovanadate, phosphatase inhibitor cocktail 2 and 3 (Sigma, 1:100 (v/v)) and Complete protease inhibitor cocktail tablets (Roche). Cell extracts were sonicated on ice and the cell debris was removed by centrifugation before protein concentrations were determined (Bradford, BioRad). […]

[1] = tested on: Regulator of telomere elongation helicase 1 (RTEL1); assay: as above; type: cell-based; settings: 100 nM, 24 hrs
Description: as §1, §2

RAB10 = assay: Phosphoproteomic analysis, immune stimulated human PBMCs; type: cell-based; settings: 100 nM, 24 hrs
Description: as §1, §2

RAB12 = assay: as above; type: cell-based; settings: 100 nM, 24 hrs
Description: as §1, §2

GAK = tested on: T1, GAK; assay: KiNativ profiling in human PBMCs; type: binding; settings: Lys2
T1 construct: purchased ActivX Technologies (KiNativ)

FAK = tested on: T2, FAK; assay: KiNativ profiling in human PBMCs; type: binding; settings: Activation Loop
T2 construct: purchased ActivX Technologies (KiNativ)

SRC = tested on: T3, SRC; assay: KiNativ profiling in human PBMCs; type: binding; settings: Lys1
T3 construct: purchased ActivX Technologies (KiNativ)

ZC2/TNIK = tested on: T4, ZC2/TNIK; assay: KiNativ profiling in human PBMCs; type: binding; settings: Lys1
T4 construct: purchased ActivX Technologies (KiNativ)

PI4KA, PI4KAP2 = assay: KiNativ profiling in human PBMCs; type: binding; settings: ATP
PKD3 = tested on: T5, PKD3; assay: KiNativ profiling in human PBMCs; type: binding
T5 construct: purchased ActivX Technologies (KiNativ)

## Cc1cccc(-c2cc(Nc3ccn(C)n3)nc3[nH]cc(C#N)c23)c1 [Lu AF58786]
Rab10-pThr73
  phosphorylation of Rab10 (pThr73): no phosphorylation
LRRK2
  LRRK2 down-regulated on the protein level: approximately 1.7 fold
[1]
  RTEL1 expression level downregulated: 2 fold
RAB10
  reduced level of phosphorylation, Thr73 on Rab10: approximately 2 fold
RAB12
  reduced level of phosphorylation, Ser106 on Rab12: approximately 2 fold

## Cn1cc(-c2c[nH]c3ncnc(N4CCOCC4)c23)cc1C#N [PFE-360]
GAK; 0.1µM
  % Inhibition: -12.4%
GAK; 1µM
  % Inhibition: -36.6%
FAK; 0.1µM
  % Inhibition: 2.6%
FAK; 1µM
  % Inhibition: 26.4%
SRC; 0.1µM
  % Inhibition: -31.8%
SRC; 1µM
  % Inhibition: -0.3%
ZC2/TNIK; 0.1µM
  % Inhibition: -31.6%
ZC2/TNIK; 1µM
  % Inhibition: 12.3%
PI4KA, PI4KAP2; 0.1µM
  % Inhibition: -6%
PI4KA, PI4KAP2; 1µM
  % Inhibition: 4.4%
PKD3; 0.1µM, Lys1
  % Inhibition: 1.2%
PKD3; 0.1µM, Lys2
  % Inhibition: 17.6%
PKD3; 1µM, Lys1
  % Inhibition: -10.7%
PKD3; 1µM, Lys2
  % Inhibition: -1.1%
